Experimental data as given in article PMC3772632 (Nature structural & molecular biology, 2013).

How the values were obtained:
[1] = system: DnaK Trp102 (NBD-SBD allosteric coupling); details: cited from earlier work
SBD = details: cited from earlier work
[2] = system: dnak deletion strain BB205; assay: Growth tests in dnak deletion strain BB205 at 37°C; format: cell-based, E. coli; details: serial dilutions spotted on LB plates, 20 μM IPTG, one overnight
DnaK ATPase = details: ref [16],[28]; cited from earlier work

Nc1ncnc2c1ncn2[C@@H]1O[C@H](COP(=O)(O)OP(=O)(O)OP(=O)(O)O)[C@@H](O)[C@H]1O [ATP]
ATP-induced change of tryptophan fluorescence ([1]; full-length DnaK, relative to apo and ADP-bound forms, ref [16]): blue-shift and fluorescence quenching | Binding and release rates of substrates upon ATP binding (SBD; Hsp70 (mainly DnaK)): greatly accelerated, more for release than binding | Reduction of affinity of SBD for its substrates upon ATP binding (SBD; ref [19],[20]): two to three

D100L: DnaK mutated individually at Asp100
in vivo DnaK function / activity in growth tests [2]: moderate growth phenotype

G461P
in vivo DnaK function / activity in growth tests [2]: compromised in vivo DnaK function modestly

G468P
in vivo DnaK function / activity in growth tests [2]: compromised in vivo DnaK function modestly

T199A: well-characterized mutation that abolishes ATPase activity but maintains allosteric coupling
Allosteric coupling of mutant ([1]; ref [16],[28]): maintains allosteric coupling | ATPase activity of mutant (DnaK ATPase): abolishes ATPase activity
